Measured values published in US20240269139A1, “COMPOUNDS FOR TARGETED PROTEIN DEGRADATION OF KINASES” (DANA-FARBER CANCER INSTITUTE, INC., priority 2020, published 2024).
Where two headings read alike, the source gives them in different places.

Key:
Assay type in all cases: cell-based
[1] = target: protein kinases (human kinome) (Homo sapiens, UniProt Q8NI60)
[2] = target: T1, protein kinases (human kinome) (Homo sapiens, UniProt Q4G0N4); conditions: Accession Q4GON4, direction down
T1 sequence (Q4G0N4 63-442): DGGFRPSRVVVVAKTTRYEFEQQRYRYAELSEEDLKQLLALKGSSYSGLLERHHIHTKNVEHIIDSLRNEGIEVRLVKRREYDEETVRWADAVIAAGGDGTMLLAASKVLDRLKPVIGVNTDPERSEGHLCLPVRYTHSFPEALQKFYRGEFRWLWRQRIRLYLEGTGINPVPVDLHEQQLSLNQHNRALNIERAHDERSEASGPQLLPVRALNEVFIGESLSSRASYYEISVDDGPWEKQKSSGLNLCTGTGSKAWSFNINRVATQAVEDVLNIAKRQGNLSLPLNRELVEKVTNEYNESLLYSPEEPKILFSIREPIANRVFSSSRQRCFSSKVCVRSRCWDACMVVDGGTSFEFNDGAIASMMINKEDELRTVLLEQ

[3] = target: T2, protein kinases (human kinome) (Homo sapiens, UniProt Q969Z0); conditions: Accession Q969Z0-1, direction down
T2 sequence (Q969Z0 108-631): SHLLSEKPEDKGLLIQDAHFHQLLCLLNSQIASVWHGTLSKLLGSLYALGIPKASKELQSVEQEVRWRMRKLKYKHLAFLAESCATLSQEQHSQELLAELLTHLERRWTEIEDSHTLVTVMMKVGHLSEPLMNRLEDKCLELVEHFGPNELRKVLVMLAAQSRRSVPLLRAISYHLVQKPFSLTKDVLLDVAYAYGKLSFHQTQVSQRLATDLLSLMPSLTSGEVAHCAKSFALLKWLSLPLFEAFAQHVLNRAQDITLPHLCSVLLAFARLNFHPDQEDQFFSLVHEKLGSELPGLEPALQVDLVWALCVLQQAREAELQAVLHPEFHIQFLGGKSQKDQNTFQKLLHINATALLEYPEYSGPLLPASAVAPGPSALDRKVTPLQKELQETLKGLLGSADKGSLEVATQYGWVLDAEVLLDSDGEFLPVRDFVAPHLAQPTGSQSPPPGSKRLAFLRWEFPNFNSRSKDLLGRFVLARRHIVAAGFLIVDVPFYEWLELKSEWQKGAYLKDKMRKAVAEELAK

[4] = target: protein kinases (human kinome) (Homo sapiens, UniProt Q9HBH9); conditions: for logFC MKNK2 (Q9HBH9-1): direction down; for logFC: MKNK2 (Q9HBH9-1)
Chain of protein kinases (human kinome) (Homo sapiens, UniProt Q9HBH9) (Q9HBH9 whole entry): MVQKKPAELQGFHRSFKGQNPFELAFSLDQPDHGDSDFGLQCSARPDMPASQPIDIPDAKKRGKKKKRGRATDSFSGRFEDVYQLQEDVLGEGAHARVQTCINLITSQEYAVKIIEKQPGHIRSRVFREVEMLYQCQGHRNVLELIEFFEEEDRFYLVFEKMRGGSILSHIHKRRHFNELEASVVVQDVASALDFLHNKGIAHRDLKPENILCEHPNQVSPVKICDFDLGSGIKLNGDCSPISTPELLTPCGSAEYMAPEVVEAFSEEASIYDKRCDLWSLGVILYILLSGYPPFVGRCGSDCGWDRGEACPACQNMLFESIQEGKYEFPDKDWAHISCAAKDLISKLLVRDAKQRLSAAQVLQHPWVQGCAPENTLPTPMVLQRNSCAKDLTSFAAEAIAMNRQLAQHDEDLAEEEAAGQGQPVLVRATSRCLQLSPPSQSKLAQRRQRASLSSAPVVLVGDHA

[5] = target: protein kinases (human kinome) (Homo sapiens, UniProt Q16584)
Chain of protein kinases (human kinome) (Homo sapiens, UniProt Q16584) (Q16584 whole entry): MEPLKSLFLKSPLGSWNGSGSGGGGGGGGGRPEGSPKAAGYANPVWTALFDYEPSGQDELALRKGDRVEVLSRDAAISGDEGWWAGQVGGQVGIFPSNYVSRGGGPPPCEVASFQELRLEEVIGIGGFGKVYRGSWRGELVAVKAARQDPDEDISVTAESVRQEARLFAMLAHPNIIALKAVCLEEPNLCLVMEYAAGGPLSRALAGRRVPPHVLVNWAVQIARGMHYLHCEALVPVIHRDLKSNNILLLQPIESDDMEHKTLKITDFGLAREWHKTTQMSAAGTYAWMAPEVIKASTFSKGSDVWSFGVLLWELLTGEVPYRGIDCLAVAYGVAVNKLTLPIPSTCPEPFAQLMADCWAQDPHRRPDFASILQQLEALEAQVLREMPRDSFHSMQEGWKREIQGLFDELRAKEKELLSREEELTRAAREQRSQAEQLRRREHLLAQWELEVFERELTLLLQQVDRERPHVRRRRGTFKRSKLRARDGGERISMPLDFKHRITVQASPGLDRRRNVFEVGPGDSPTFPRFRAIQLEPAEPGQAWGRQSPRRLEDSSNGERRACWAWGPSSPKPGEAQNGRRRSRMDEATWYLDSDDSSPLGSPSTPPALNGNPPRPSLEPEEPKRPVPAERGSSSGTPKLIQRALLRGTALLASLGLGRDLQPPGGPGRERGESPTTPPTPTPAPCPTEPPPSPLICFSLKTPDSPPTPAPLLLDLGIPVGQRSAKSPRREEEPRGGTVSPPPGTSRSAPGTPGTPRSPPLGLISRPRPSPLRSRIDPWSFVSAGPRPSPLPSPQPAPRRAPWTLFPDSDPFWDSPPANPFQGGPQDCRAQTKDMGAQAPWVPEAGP

[6] = target: protein kinases (human kinome) (Homo sapiens, UniProt P07947); conditions: YES1 (P07947)
Chain of protein kinases (human kinome) (Homo sapiens, UniProt P07947) (P07947 whole entry): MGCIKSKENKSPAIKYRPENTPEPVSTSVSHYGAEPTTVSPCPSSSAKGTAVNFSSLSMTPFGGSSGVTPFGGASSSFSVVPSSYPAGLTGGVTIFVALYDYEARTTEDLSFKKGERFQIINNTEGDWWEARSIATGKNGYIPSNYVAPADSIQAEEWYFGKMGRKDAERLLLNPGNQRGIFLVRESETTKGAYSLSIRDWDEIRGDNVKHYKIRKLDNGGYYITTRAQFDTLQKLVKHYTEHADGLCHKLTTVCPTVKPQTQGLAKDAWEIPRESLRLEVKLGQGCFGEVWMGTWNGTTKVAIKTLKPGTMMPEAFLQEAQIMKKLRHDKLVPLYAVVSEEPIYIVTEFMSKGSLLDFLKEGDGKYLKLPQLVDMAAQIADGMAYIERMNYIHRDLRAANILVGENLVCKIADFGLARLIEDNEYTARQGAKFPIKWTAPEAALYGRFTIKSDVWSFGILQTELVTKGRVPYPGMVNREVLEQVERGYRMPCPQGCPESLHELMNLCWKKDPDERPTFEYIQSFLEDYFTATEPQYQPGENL

[7] = target: protein kinases (human kinome) (Homo sapiens, UniProt P53667); conditions: LIMK1 (P53667-1)
Chain of protein kinases (human kinome) (Homo sapiens, UniProt P53667) (P53667 whole entry): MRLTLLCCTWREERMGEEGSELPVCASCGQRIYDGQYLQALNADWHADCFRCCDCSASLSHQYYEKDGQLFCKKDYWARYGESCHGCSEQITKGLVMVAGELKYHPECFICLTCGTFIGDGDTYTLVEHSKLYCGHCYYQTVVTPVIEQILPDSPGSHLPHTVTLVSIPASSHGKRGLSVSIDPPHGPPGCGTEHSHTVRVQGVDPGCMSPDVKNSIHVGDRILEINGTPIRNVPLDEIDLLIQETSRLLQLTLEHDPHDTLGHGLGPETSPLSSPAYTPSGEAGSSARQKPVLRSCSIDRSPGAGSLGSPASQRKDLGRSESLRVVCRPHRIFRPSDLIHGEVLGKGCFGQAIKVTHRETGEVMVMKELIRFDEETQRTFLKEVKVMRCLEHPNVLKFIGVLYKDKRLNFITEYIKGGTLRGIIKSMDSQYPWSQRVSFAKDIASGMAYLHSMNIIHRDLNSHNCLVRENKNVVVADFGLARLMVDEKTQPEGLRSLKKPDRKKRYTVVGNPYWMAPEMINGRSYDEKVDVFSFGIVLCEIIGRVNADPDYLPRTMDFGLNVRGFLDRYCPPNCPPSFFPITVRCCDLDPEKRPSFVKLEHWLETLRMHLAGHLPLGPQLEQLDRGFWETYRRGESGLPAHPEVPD

[8] = target: protein kinases (human kinome) (Homo sapiens, UniProt Q00535)
Chain of protein kinases (human kinome) (Homo sapiens, UniProt Q00535) (Q00535 whole entry): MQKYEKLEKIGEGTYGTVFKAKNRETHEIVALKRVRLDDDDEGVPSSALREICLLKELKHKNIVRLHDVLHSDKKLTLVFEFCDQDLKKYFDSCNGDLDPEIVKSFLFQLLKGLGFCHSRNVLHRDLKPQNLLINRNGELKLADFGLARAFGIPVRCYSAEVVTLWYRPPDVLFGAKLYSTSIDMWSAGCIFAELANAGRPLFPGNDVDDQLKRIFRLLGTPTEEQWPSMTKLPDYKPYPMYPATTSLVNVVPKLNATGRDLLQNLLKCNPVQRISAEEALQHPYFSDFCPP

[9] = direction down, experiment wp137
[10] = direction down, experiment wp147, 1 uM
[11] = direction down, experiment wp147, 2 uM
[12] = direction down, experiment wp147, 4 uM
[13] = experiment wp131, direction down
[14] = experiment wp137, direction of change down

Chain of protein kinases (human kinome) (Homo sapiens, UniProt Q8NI60) (Q8NI60 163-647): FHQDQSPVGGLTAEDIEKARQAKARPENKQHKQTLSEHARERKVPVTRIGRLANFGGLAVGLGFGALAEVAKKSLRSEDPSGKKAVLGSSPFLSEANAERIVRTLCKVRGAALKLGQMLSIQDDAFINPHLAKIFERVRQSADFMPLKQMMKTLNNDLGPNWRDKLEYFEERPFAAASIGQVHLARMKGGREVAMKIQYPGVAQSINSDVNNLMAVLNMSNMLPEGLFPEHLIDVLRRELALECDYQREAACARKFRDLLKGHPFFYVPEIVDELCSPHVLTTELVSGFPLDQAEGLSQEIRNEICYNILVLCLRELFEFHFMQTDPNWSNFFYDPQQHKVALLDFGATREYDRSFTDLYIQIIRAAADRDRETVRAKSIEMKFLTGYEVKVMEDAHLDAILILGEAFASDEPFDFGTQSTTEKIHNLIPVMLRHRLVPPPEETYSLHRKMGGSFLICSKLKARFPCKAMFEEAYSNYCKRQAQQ

With `CC(=O)c1c(C)c2cnc(Nc3ccc(N4CCN(CCOCCOCCOCCNC(=O)COc5cccc6c5C(=O)N(C5CCC(=O)NC5=O)C6=O)CC4)cn3)nc2n(C2CCCC2)c1=O` (stereo not drawn) [BSJ.03.123] the “logFC COQ8A (Q8N160-1)” value ([1]; experiment wp084) was −0.4611, the “logFC COQ8A (Q8NI60-1)” value ([1]; experiment wp084) was −0.4611 and the “logFC NADK2” value ([2]; experiment wp084) was −0.4839.
For `CN(C)C(=O)c1cc2cnc(Nc3ccc(N4CCN(CCCCNC(=O)COc5cccc6c5C(=O)N(C5CCC(=O)NC5=O)C6=O)CC4)cn3)nc2n1C1CCCC1` (stereo not drawn) [BSJ.04.132], the “logFC COQ8A (Q8N160-1)” value ([1]; experiment wp084) was −0.5939, the “logFC COQ8A (Q8NI60-1)” value ([1]; experiment wp084) was −0.6939 and the “logFC NADK2” value ([2]; experiment wp084) was −0.5591. For the same molecule, the “logFC TBRG4” value ([3]; experiment wp084) was −0.6395.
`Cc1ccc(NC(=O)c2cccc(C(F)(F)F)c2)cc1N1Cc2cnc(Nc3ccc(N4CCN(CCCOc5cccc6c5C(=O)N(C5CCC(=O)NC5=O)C6=O)CC4)nc3)nc2N(C)C1=O` (stereo not drawn) [DB0662] was tested, and the “logFC MKNK2 (Q9HBH9-1)” value ([4]; Experiment wp168) was −0.4185, the logFC ([4]; experiment wp168) was −0.4185 and the “logFC MAP3K11 (Q16584)” value ([5]; experiment wp168) was −0.7288. The logFC ([6]; experiment wp168) was −0.8025, the logFC ([6]; experiment wp168, direction down) was −0.8025 and the “logFC LIMK1” value ([7]; direction down, experiment wp168) was −1.911. The “logFC LIMK1” value ([7]; experiment wp168, down) was −1.911.
In the case of `CC(C)(C)c1nc(-c2cccc(NS(=O)(=O)c3c(F)cccc3F)c2F)c(-c2ccnc(NCCOCCNC(=O)CCOCCOCCNc3cccc4c3C(=O)N(C3CCC(=O)NC3=O)C4=O)n2)s1` (stereo not drawn) [DD.03.106], the “logFC COQ8A (Q8N160-1)” value ([1]; experiment wp147, 1 uM) is reported as −0.3548, the “logFC COQ8A (Q8NI60-1)” value ([1]; experiment wp147, 1 uM) is reported as −0.3548 and the “logFC COQ8A (Q8N160-1)” value ([1]; experiment wp147, 4 uM) is reported as −0.8159. For the same molecule, the “logFC COQ8A (Q8NI60-1)” value ([1]; experiment wp147, 4 uM) was −0.8159, the “logFC NADK2” value ([2]; experiment wp147, 4 uM) was −0.6976 and the “logFC TBRG4” value ([3]; experiment wp147, 4 uM) was −0.7514. The “logFC LIMK1” value ([7]; direction down, experiment wp047) was −1.637, the “logFC LIMK1” value [7, 9] was −1.981 and the “logFC LIMK1” value [7, 10] was −2.959. The “logFC LIMK1” value [7, 11] was −2.2, the “logFC LIMK1” value [7, 12] was −0.637 and the “logFC LIMK1” value ([7]; experiment wp047, down) was −1.637. For the same molecule, the “logFC LIMK1” value ([7]; experiment wp137, down) was −1.981, the “logFC LIMK1” value ([7]; experiment wp147, 1 uM, down) was −2.959 and the “logFC LIMK1” value ([7]; experiment wp147, 2 uM, down) was −2.2. The “logFC LIMK1” value ([7]; experiment wp147, 4 uM, down) was −0.637.
For `CC(C)(C)c1nc(-c2cccc(NS(=O)(=O)c3c(F)cccc3F)c2F)c(-c2ccnc(NCCOCCNC(=O)CCOCCOCCNc3cccc4c3CN(C3CCC(=O)NC3=O)C4=O)n2)s1` (stereo not drawn) [DD.03.107], the “logFC COQ8A (Q8N160-1)” value ([1]; experiment wp147, 1 uM) was −0.6678, the “logFC COQ8A (Q8NI60-1)” value ([1]; experiment wp147, 1 uM) was −0.6678 and the “logFC COQ8A (Q8N160-1)” value ([1]; experiment wp147, 2 uM) was −0.6288. The “logFC COQ8A (Q8NI60-1)” value ([1]; experiment wp147, 2 uM) was −0.6288, the “logFC COQ8A (Q8N160-1)” value ([1]; experiment wp147, 4 uM) was −1.121 and the “logFC COQ8A (Q8NI60-1)” value ([1]; experiment wp147, 4 uM) was −1.121. The “logFC NADK2” value ([2]; experiment wp147, 1 uM) was −0.5404, the “logFC NADK2” value ([2]; experiment wp147, 2 uM) was −0.4442 and the “logFC NADK2” value ([2]; experiment wp147, 4 uM) was −0.9504. For the same molecule, the “logFC TBRG4” value ([3]; experiment wp147, 1 uM) was −0.6245, the “logFC TBRG4” value ([3]; experiment wp147, 2 uM) was −0.6284 and the “logFC TBRG4” value ([3]; experiment wp147, 4 uM) was −1.105. The “logFC LIMK1” value ([7]; direction down, experiment wp056) was −0.9594, the “logFC LIMK1” value [7, 9] was −1.222 and the “logFC LIMK1” value [7, 10] was −0.9691. The “logFC LIMK1” value [7, 11] was −1.375, the “logFC LIMK1” value [7, 12] was −1.536 and the “logFC LIMK1” value ([7]; experiment wp056, down) was −0.9594. The “logFC LIMK1” value ([7]; experiment wp137, down) was −1.222, the “logFC LIMK1” value ([7]; experiment wp147, 1 uM, down) was −0.9691 and the “logFC LIMK1” value ([7]; experiment wp147, 2 uM, down) was −1.375. The “logFC LIMK1” value ([7]; experiment wp147, 4 uM, down) was −1.536.
With `O=C(COc1cccc2c1C(=O)N(C1CCC(=O)NC1=O)C2=O)NCCCCCCCC(=O)NC1(c2ccc(-c3nc4ccn5c(=O)[nH]nc5c4cc3-c3ccccc3)cc2)CCC1` (stereo not drawn) [INY.01.140.1] the “logFC NADK2” value ([2]; experiment wp081) was −0.3886 and the “logFC TBRG4” value ([3]; experiment wp081) was −0.4208.
In the case of `CNC(=O)c1ccccc1Nc1cc(Nc2ccc(N3CCN(CCOCCOCCNC(=O)CNc4cccc5c4C(=O)N(C4CCC(=O)NC4=O)C5=O)CC3)cc2OC)ncc1C(F)(F)F` (stereo not drawn) [MFH.5.103.1], the “logFC TBRG4” value ([3]; experiment wp076) is reported as −0.3858.
`Cn1c(=O)c(-c2c(Cl)cccc2Cl)cc2cnc(Nc3ccc(OCCNC(=O)CCCCCCNC(=O)COc4cccc5c4C(=O)N(C4CCC(=O)NC4=O)C5=O)cc3)nc21` (stereo not drawn) [SB1.G.192.1] was tested, and the “logFC TBRG4” value ([3]; experiment wp081) was −0.3452, the logFC ([6]; experiment wp131) was −1.244 and the logFC [6, 13] was −1.244.
In the case of `CC(C)S(=O)(=O)c1ccccc1Nc1nc(Nc2ccc(N3CCN(CCOCCOCCNC(=O)CNc4cccc5c4C(=O)N(C4CCC(=O)NC4=O)C5=O)CC3)cc2)ncc1Cl` (stereo not drawn) [TL12.186], the “logFC COQ8A (Q8N160-1)” value ([1]; experiment wp137) is reported as −0.4564, the “logFC COQ8A (Q8NI60-1)” value ([1]; experiment wp137) is reported as −0.4564 and the “logFC of CDK5” value ([8]; Accession Q00535, experiment wp016) is reported as −0.9261. For the same molecule, the “logFC CDK5 (Q00535)” value ([8]; experiment wp016, direction of change down) was −0.9261, the “logFC CDK5 (Q00535)” value ([8]; experiment wp131) was −1.3 and the “logFC CDK5 (Q00535)” value ([8]; experiment wp131, direction of change down) was −1.3. The “logFC CDK5 (Q00535)” value ([8]; experiment wp137) was −1.234, the “logFC CDK5 (Q00535)” value [8, 14] was −1.234 and the “logFC MAP3K11 (Q16584)” value ([5]; experiment wp131) was −1.795. For the same molecule, the “logFC MAP3K11 (Q16584)” value ([5]; experiment wp137) was −1.493, the “logFC TBRG4” value ([3]; experiment wp137) was −0.3425 and the logFC ([6]; experiment wp131) was −0.5437. For the same molecule, the logFC [6, 13] was −0.5437, the “logFC LIMK1” value ([7]; direction down, experiment wp131) was −1.055 and the “logFC LIMK1” value [7, 9] was −0.8734. The “logFC LIMK1” value ([7]; experiment wp131, down) was −1.055 and the “logFC LIMK1” value ([7]; experiment wp137, down) was −0.8734.
In the case of `CC(C)S(=O)(=O)c1ccccc1Nc1nc(Nc2ccc(N3CCN(CCOCCOCCC(=O)NCCNc4cccc5c4CN(C4CCC(=O)NC4=O)C5=O)CC3)cc2)ncc1Cl` (stereo not drawn) [TL13.97], the “logFC CDK5 (Q00535)” value ([8]; experiment wp137) is reported as −1.114, the “logFC CDK5 (Q00535)” value [8, 14] is reported as −1.114 and the “logFC MAP3K11 (Q16584)” value ([5]; experiment wp137) is reported as −0.7626. For the same molecule, the “logFC LIMK1” value [7, 9] was −1.173 and the “logFC LIMK1” value ([7]; experiment wp137, down) was −1.173.
With `C=CCn1c(=O)c2cnc(Nc3ccc(N4CCN(CCCNc5cccc6c5C(=O)N(C5CCC(=O)NC5=O)C6=O)CC4)cc3)nc2n1-c1cccc(C(C)(C)O)n1` (stereo not drawn) [ZNL.02.096] the “logFC MKNK2 (Q9HBH9-1)” value ([4]; Experiment wp118) was −0.4751, the logFC ([4]; experiment wp118) was −0.4751 and the “logFC COQ8A (Q8N160-1)” value ([1]; experiment wp056) was −0.4317. The “logFC COQ8A (Q8NI60-1)” value ([1]; experiment wp056) was −0.4317, the “logFC COQ8A (Q8N160-1)” value ([1]; experiment wp118) was −0.423 and the “logFC COQ8A (Q8NI60-1)” value ([1]; experiment wp118) was −0.423. For the same molecule, the “logFC NADK2” value ([2]; experiment wp118) was −0.4004.
